From patent publication US20100204145A1, “USE OF A PEPTIDE AS A THERAPEUTIC AGENT” (priority 2007, published 2010)
Ends that are not written are not given here.

What was measured:
HIV-1IIIB = experiment: HIV-1 antiviral assay in CEM-SS cells (MTS readout); format: cell-based; conditions: positive controls
Interferon-γ (IFN-γ) = experiment: Th1/Th2 cytokine profiling assay, IFN-γ; format: cell-based; conditions: 10 micrograms per ml; Ovalbumin-restimulated spleen cells of immunized Balb/c mice; 72 hours
Source text: (§1) The Balb/c mice (originated in 1923, it is a popular strain and is used in many different research disciplines. Also classified as an inbred from the production of 20 or more successive brother-sister matings, the Balb/c mouse is albino and small in size) were immunized on Days 1, 15, and 29 with Ovalbumin (Ovalbumin is the main protein found in egg white, commonly used to stimulate an immunological reaction in test animals) in PBS (5 micrograms/injection). On day 50, spleens of the mice were harvested (3 weeks after last boost with Ovalbumin). […] Thereafter, additional Ovalbumin was added to the cells at 10 micrograms/ml for in vitro restimulation of the cells. 72 hours later, cell supernatants were harvested and assayed using the Becton Dickinson Mouse Th1/Th2 Cytokine CBA Kit.

Human A549 cells = experiment: Apoptosis prevention assay (C2 ceramide, Annexin-5); format: cell-based; conditions: 10 micrograms per ml, 30 min pretreatment, then C2 ceramide
Interleukin-5 (IL-5) = experiment: Th1/Th2 cytokine profiling assay, IL-5; format: cell-based; conditions: 10 micrograms per ml; Ovalbumin-restimulated spleen cells of immunized Balb/c mice; 72 hours
Source text: (§2) The Balb/c mice (originated in 1923, it is a popular strain and is used in many different research disciplines. Also classified as an inbred from the production of 20 or more successive brother-sister matings, the Balb/c mouse is albino and small in size) were immunized on Days 1, 15, and 29 with Ovalbumin (Ovalbumin is the main protein found in egg white, commonly used to stimulate an immunological reaction in test animals) in PBS (5 micrograms/injection). On day 50, spleens of the mice were harvested (3 weeks after last boost with Ovalbumin). […] Thereafter, additional Ovalbumin was added to the cells at 10 micrograms/ml for in vitro restimulation of the cells. 72 hours later, cell supernatants were harvested and assayed using the Becton Dickinson Mouse Th1/Th2 Cytokine CBA Kit. This kit can be used to measure Interleukin-2 (IL-2), Interleukin-4 (IL-4), Interleukin-5 (IL-5), Interferon-γ (IFN-γ), and Tumor Necrosis Factor-α (TNF-α) protein levels in a single sample. The kit performance has been optimized for analysis of physiologically relevant concentrations (μg/ml levels) of specific cytokine proteins in tissue culture supernatants and serum samples.

RAW 264.7 cells = experiment: Phagocytosis assay (Fluorescein-labeled Escherichia coli, flow cytometry); format: cell-based, Mouse; conditions: 10 micrograms per ml, combination peptide 1:peptide 2 1.10 mole:0.90 mole
Interleukin-4 (IL-4) = experiment: Th1/Th2 cytokine profiling assay, IL-4; format: cell-based; conditions: 10 micrograms per ml; Ovalbumin-restimulated spleen cells of immunized Balb/c mice; 72 hours
Source text: as §2

[1] = test system: Tumor Necrosis Factor-α (TNF-α); experiment: Th1/Th2 cytokine profiling assay, TNF-α; format: cell-based; conditions: 10 micrograms per ml; Ovalbumin-restimulated spleen cells of immunized Balb/c mice; 72 hours
Source text: as §1

Interleukin-2 (IL-2) = experiment: Th1/Th2 cytokine profiling assay, IL-2; format: cell-based; conditions: 10 micrograms per ml; Ovalbumin-restimulated spleen cells of immunized Balb/c mice; 72 hours
Source text: as §2

Row | Molecule | antiviral activity of positive control compounds (HIV-1) (HIV-1IIIB) | IFNγ spleen cells; TH1 response (% of control) (Interferon-γ (IFN-γ)) | prevention (reduction) of ceramide-induced apoptosis on human lung cells (Human A549 cells) [%] | IL-5 spleen cells; TH2 response (% of control) (Interleukin-5 (IL-5)) | increase on the phagocytic activity of murine macrophages (RAW 264.7 cells) [%] | IL-4 spleen cells; TH2 response (% of control) (Interleukin-4 (IL-4)) | TNF-a spleen cells; TH1 response (% of control) [1] | IL-2 spleen cells (% of control) (Interleukin-2 (IL-2))
1 | CC(C)(C)NC(=O)[C@@H]1CN(Cc2cccnc2)CCN1C[C@@H](O)C[C@@H](Cc1ccccc1)C(=O)N[C@H]1c2ccccc2C[C@H]1O [indinavir] | expected levels of antiviral activity |  |  |  |  |  |  | 
2 | Tyr-Gly-Gly-Phe-Leu-Arg-Arg-OH (YGGFLRR-OH) [peptide 2] |  | 126.8 % of control | 11.5 | 66.0 % of control | 25.7 | 81.2 % of control | 90.3 % of control | 93.8 % of control
3 | CCNC(=O)[C@@H]1CCCN1C(=O)[C@H](CCCNC(=N)N)NC(=O)[C@H](CC(C)C)NC(=O)[C@@H](COC(C)(C)C)NC(=O)[C@H](Cc1ccc(O)cc1)NC(=O)[C@H](CO)NC(=O)[C@H](Cc1c[nH]c2ccccc12)NC(=O)[C@H](Cc1cnc[nH]1)NC(=O)[C@@H]1CCC(=O)N1 [peptide 1, Pyr-His-Trp-Ser-Tyr-D-Ser(tBu)-Leu-Arg-Pro-NHEt] |  | 76.6 % of control | 26.4 | 80.4 % of control | 31.4 | 131.6 % of control | 121.2 % of control | 175.3 % of control
4 | Cc1cn([C@H]2C[C@H](N=[N+]=[N-])[C@@H](CO)O2)c(=O)[nH]c1=O [AZT] | expected levels of antiviral activity |  |  |  |  |  |  | 
